Results: PMC2902621 (Archives of biochemistry and biophysics, 2010)

Biological target: cytochrome c peroxidase (CcP) (Saccharomyces cerevisiae, UniProt P00431, R115A/T120I/D219G/W258F)
Test: UV-visible optical titration of ferric enzyme
Type: binding

cytochrome c peroxidase (CcP), sequence (P00431 68-361 R115A/T120I/D219G/W258F): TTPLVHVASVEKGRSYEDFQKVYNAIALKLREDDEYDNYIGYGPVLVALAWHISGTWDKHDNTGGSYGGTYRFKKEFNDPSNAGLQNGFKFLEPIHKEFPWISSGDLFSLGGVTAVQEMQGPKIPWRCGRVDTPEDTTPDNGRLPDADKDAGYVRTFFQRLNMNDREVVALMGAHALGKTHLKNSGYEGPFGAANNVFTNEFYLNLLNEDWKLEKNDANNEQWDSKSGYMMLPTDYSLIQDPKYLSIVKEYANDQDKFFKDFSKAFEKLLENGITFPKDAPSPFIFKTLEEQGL

## N=C(N)NO [NHG, N-hydroxyguanidine]
  Kd: 3.37 mM
